From patent US20180194762A1 (Pharmacyclics LLC, priority 2017, published 2018) come the findings set out here.

By IC50 is commonly meant the midpoint of a concentration-inhibition curve.

Common to all, as to format: biochemical
One test has as its target T1, TEC (Homo sapiens, UniProt P42680).
T1 sequence (P42680 1-631): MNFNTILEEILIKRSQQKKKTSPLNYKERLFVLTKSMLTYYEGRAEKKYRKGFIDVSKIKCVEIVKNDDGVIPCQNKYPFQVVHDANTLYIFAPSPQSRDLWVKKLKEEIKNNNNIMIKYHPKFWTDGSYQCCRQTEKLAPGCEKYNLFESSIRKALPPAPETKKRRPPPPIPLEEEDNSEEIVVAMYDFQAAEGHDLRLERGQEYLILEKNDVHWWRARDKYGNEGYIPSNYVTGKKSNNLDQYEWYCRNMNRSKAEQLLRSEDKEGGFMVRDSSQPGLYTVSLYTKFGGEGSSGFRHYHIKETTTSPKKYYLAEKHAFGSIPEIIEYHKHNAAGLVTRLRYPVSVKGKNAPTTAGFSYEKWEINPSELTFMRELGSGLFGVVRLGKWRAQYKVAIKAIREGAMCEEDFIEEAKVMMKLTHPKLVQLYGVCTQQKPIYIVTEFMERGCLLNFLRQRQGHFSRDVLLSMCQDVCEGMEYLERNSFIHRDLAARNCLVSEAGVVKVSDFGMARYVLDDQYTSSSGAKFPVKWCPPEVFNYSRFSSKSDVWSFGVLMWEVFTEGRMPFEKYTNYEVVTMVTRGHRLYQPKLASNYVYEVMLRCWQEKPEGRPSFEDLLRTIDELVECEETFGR
Kind of test: Inhibition of a panel of kinases (in vitro HotSpot kinase assay, 33P-ATP, 1 μM ATP). The settings on record: HotSpot kinase assay, 1 μM ATP. The gist of the method:
(§1)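 Degree of kinase inhibition is determined in vitro using isolated enzymes, a matched substrate and radiolabelled ATP (1 μM).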

The target in a further test is T2, Btk (Homo sapiens, UniProt Q06187).
T2 construct: purified from insect cells as a full-length construct containing a N-terminal 6X-His tag; His6 (N); made in house; host or cells: insect cells (Method C)
T2 sequence (Q06187 whole entry): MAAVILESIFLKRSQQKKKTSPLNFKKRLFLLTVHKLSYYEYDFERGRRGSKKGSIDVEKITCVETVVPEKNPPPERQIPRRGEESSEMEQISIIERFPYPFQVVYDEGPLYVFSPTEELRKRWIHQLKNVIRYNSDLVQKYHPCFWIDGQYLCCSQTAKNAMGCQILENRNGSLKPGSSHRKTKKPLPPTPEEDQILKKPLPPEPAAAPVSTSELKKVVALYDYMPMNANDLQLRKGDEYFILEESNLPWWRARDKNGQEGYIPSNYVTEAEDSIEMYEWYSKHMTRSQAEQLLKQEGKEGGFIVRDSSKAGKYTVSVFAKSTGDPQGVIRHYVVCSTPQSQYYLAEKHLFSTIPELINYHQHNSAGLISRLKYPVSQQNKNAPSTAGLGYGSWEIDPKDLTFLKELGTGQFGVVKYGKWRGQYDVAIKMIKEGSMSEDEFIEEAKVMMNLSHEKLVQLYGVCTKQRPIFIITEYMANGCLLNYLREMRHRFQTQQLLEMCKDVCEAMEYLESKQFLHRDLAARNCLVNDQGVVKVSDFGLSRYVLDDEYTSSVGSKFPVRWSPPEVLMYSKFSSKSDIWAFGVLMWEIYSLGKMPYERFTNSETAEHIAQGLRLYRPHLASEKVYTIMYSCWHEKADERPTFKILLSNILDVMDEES
Briefly: Btk in vitro inhibitory activity (one of Method A TR-FRET, Method B electrophoretic mobility shift, Method C radiometric filter binding). The settings on record: wild-type Btk; read-out: Btk-WT IC50. The method, boiled down: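 Method A: TR-FRET with 0.5 nM Btk at [ATP]=Km, EDTA-quenched, 665/615 nm ratio; Ki(app) converted to IC50. Method B: 1 nM full-length His6 human BTK, 1 μM FAM peptide, pH 7.5, mobility-shift product/sum ratio, 12-point 4-parameter fit. Method C: radiometric filter binding, 8 nM His-tagged BTK, 0.2 mg/mL poly-Glu-Tyr.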
(In general: Mobility shift assays separate free from complexed probe on a gel.)

For a further test, the target named is T3, panel of kinases (Homo sapiens, UniProt P51813).
T3 sequence (P51813 1-675): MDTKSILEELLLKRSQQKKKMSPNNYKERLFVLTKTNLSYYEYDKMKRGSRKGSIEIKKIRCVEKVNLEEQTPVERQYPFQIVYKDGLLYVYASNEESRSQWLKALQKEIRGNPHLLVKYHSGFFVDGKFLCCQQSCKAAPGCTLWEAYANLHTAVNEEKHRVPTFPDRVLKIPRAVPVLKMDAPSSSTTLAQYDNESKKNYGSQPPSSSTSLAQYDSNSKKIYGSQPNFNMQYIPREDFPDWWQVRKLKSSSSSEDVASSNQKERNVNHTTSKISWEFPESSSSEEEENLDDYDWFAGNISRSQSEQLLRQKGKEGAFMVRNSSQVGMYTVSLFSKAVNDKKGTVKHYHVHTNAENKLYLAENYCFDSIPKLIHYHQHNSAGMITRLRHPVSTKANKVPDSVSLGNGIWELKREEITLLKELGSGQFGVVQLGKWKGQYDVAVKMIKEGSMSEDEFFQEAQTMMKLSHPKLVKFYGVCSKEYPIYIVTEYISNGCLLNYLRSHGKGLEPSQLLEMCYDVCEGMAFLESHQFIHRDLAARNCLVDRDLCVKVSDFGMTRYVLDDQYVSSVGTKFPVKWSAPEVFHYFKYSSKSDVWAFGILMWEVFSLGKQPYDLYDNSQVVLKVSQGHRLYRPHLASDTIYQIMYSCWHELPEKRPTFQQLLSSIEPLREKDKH
Briefly: Inhibition of a panel of kinases (in vitro HotSpot kinase assay, 33P-ATP, 1 μM ATP), other kinases. The settings on record: BMX wild-type, read-out: BMX-WT IC50. The gist of the method:
as §1

`C=CC(=O)N1CC[C@@H](Nc2n[nH]c3nccc(-c4ccc([C@@H](C)NC(=O)c5noc(C(C)(C)C)n5)c(F)c4)c23)C1` [Example 372, 5-tert-butyl-N-{(1R)-1-[2-fluoro-4-(3-{[(3R)-1-(prop-2-enoyl)pyrrolidin-3-yl]amino}-1H-pyrazolo[3,4-b]pyridin-4-yl)phenyl]ethyl}-1,2,4-oxadiazole-3-carboxamide]: the figures for the IC50 at TEC, on Btk and at panel of kinases were 30.5 nM, 0.0597 nM and 36 nM, respectively.
The corresponding values for `CC(=O)N[C@@H]1CCN(c2n[nH]c3nccc(-c4ccc(CNC(=O)c5nc(C(C)(C)C)no5)c(F)c4)c23)C1` [Example 373, N-[(4-{3-[(3R)-3-acetamidopyrrolidin-1-yl]-1H-pyrazolo[3,4-b]pyridin-4-yl}-2-fluorophenyl)methyl]-3-tert-butyl-1,2,4-oxadiazole-5-carboxamide] are 30.5 nM, 0.0597 nM and 36 nM.
In the case of `C=CC(=O)N1CC[C@@H](Nc2n[nH]c3nccc(-c4ccc(CNC(=O)c5ccc6c(c5)OCCO6)c(F)c4)c23)C1` [Example 374, N-{[2-fluoro-4-(3-{[(3R)-1-(prop-2-enoyl)pyrrolidin-3-yl]amino}-1H-pyrazolo[3,4-b]pyridin-4-yl)phenyl]methyl}-2,3-dihydro-1,4-benzodioxine-6-carboxamide], the figures for the IC50 against TEC, on Btk and on panel of kinases were 146 nM, 1.23 nM and 128 nM, respectively.
The corresponding values for `C=CC(=O)N1CC[C@@H](Nc2n[nH]c3nccc(-c4ccc(CNC(=O)N5CCCCC5)c(F)c4)c23)C1` [Example 375, N-{[2-fluoro-4-(3-{[(3R)-1-(prop-2-enoyl)pyrrolidin-3-yl]amino}-1H-pyrazolo[3,4-b]pyridin-4-yl)phenyl]methyl}piperidine-1-carboxamide] are 807 nM, 22.1 nM and 98.3 nM.
On the same counts, the results for `C=CC(=O)N1CC[C@@H](Nc2n[nH]c3nccc(-c4ccc(CNC(=O)c5nn6c(c5C)OCCC6)c(F)c4)c23)C1` [Example 376, N-{[2-fluoro-4-(3-{[(3R)-1-(prop-2-enoyl)pyrrolidin-3-yl]amino}-1H-pyrazolo[3,4-b]pyridin-4-yl)phenyl]methyl}-3-methyl-6,7-dihydro-5H-pyrazolo[5,1-b][1,3]oxazine-2-carboxamide] are 344 nM, 7.99 nM and 115 nM.
The corresponding values for `C=CC(=O)N1CC[C@@H](Nc2n[nH]c3nccc(-c4ccc(CNC(=O)c5cn6ccccc6n5)c(F)c4)c23)C1` [Example 377, N-{[2-fluoro-4-(3-{[(3R)-1-(prop-2-enoyl)pyrrolidin-3-yl]amino}-1H-pyrazolo[3,4-b]pyridin-4-yl)phenyl]methyl}imidazo [1,2-a]pyridine-2-carboxamide] are 671 nM, 40.6 nM and 133 nM.
For `C=CC(=O)N1CC[C@@H](Nc2n[nH]c3nccc(-c4ccc(CNC(=O)c5ccc6sc(C)nc6c5)c(F)c4)c23)C1` [Example 378, N-{[2-fluoro-4-(3-{[(3R)-1-(prop-2-enoyl)pyrrolidin-3-yl]amino}-1H-pyrazolo[3,4-b]pyridin-4-yl)phenyl]methyl}-2-methyl-1,3-benzothiazole-5-carboxamide], the IC50 came to 278 nM at TEC, 6.54 nM on Btk and 69.2 nM at panel of kinases.
On the same counts, the results for `C=CC(=O)N1CC[C@@H](Nc2n[nH]c3nccc(-c4ccc(CNC(=O)c5ccc6ocnc6c5)c(F)c4)c23)C1` [Example 379, (R)-N-{[2-fluoro-4-(3-{[1-(prop-2-enoyl)pyrrolidin-3-yl]amino}-1H-pyrazolo[3,4-b]pyridin-4-yl)phenyl]methyl}-1,3-benzoxazole-5-carboxamide] are 741 nM, 64.1 nM and 141 nM.
On the same counts, the results for `C=CC(=O)N1CC[C@@H](Nc2n[nH]c3nccc(-c4ccc(CNC(=O)c5ccc6oc(C)nc6c5)c(F)c4)c23)C1` [Example 380, (R)-N-{[2-fluoro-4-(3-{[1-(prop-2-enoyl)pyrrolidin-3-yl]amino}-1H-pyrazolo[3,4-b]pyridin-4-yl)phenyl]methyl}-2-methyl-1,3-benzoxazole-5-carboxamide] are 662 nM, 336 nM and 101 nM.
The corresponding values for `C=CC(=O)N[C@@H]1CCN(c2n[nH]c3nccc(-c4ccc([C@@H](C)NC(=O)c5cc(C(C)(C)O)on5)cc4)c23)C1` [Example 382, 5-(2-hydroxypropan-2-yl)-N-{(1R)-1-[4-(3-{(3R)-3-[(prop-2-enoyl)amino]pyrrolidin-1-yl}-1H-pyrazolo[3,4-b]pyridin-4-yl)phenyl]ethyl}-1,2-oxazole-3-carboxamide] are 433 nM, 1.81 nM and 435 nM.
Regarding `C[C@@H](NC(=O)c1nc(C(C)(C)C)no1)c1ccc(-c2ccnc3[nH]nc(N4CCCCC4)c23)cc1` [Example 384, 3-tert-butyl-N-[(1R)-1-{4-[3-(piperidin-1-yl)-1H-pyrazolo[3,4-b]pyridin-4-yl]phenyl}ethyl]-1,2,4-oxadiazole-5-carboxamide], the IC50 on TEC came to 3040 nM; on Btk, 0.664 nM; at panel of kinases, 2040 nM.
The corresponding values for `CC(C)c1noc(C(=O)N[C@H](C)c2ccc(-c3ccnc4[nH]nc(N5CCOCC5)c34)cc2)n1` [Example 389, N-[(1R)-1-{4-[3-(morpholin-4-yl)-1H-pyrazolo[3,4-b]pyridin-4-yl]phenyl}ethyl]-3-(propan-2-yl)-1,2,4-oxadiazole-5-carboxamide] are 914 nM, 4.05 nM and 502 nM.
Turning to `C=CC(=O)N1CC[C@@H](Nc2n[nH]c3nccc(-c4ccc(CNC(=O)c5cn6c(C)cccc6n5)c(F)c4)c23)C1` [Example 390, N-{[2-fluoro-4-(3-{[(3R)-1-(prop-2-enoyl)pyrrolidin-3-yl]amino}-1H-pyrazolo[3,4-b]pyridin-4-yl)phenyl]methyl}-5-methylimidazo[1,2-a]pyridine-2-carboxamide], the IC50 amounted to 713 nM against TEC, 38.1 nM on Btk and 162 nM at panel of kinases.
On the same counts, the results for `C[C@H]1CC[C@@H](Nc2n[nH]c3nccc(-c4ccc(CNC(=O)c5nc(C(C)(C)C)no5)c(F)c4)c23)CN1C(=O)N(C)C` [Example 391, (2S,5R)-5-{[4-(4-{[(3-tert-butyl-1,2,4-oxadiazole-5-carbonyl)amino]methyl}-3-fluorophenyl)-1H-pyrazolo[3,4-b]pyridin-3-yl]amino}-N,N,2-trimethylpiperidine-1-carboxamide] are 776 nM, 0.237 nM and 1350 nM.
The corresponding values for `CC(=O)N[C@@H]1CCN(c2n[nH]c3nccc(-c4ccc(CNC(=O)c5nc6ccccc6o5)c(F)c4)c23)C1` [Example 394, N-[(4-{3-[(3R)-3-acetamidopyrrolidin-1-yl]-1H-pyrazolo[3,4-b]pyridin-4-yl}-2-fluorophenyl)methyl]-1,3-benzoxazole-2-carboxamide] are 1890 nM, 63.3 nM and 661 nM.
The corresponding values for `C=CC(=O)N[C@@H]1CCN(c2n[nH]c3nccc(-c4ccc(CNC(=O)c5nc6ccccc6o5)c(F)c4)c23)C1` [Example 395, N-{[2-fluoro-4-(3-{(3R)-3-[(prop-2-enoyl)amino]pyrrolidin-1-yl}-1H-pyrazolo[3,4-b]pyridin-4-yl)phenyl]methyl}-1,3-benzoxazole-2-carboxamide] are 52.6 nM, 1.19 nM and 30.3 nM.
